Results on eleven molecules are retold here after patent US12145923B2, “Tetrahydroisoquinoline compound, preparation method therefor, pharmaceutical composition containing same, and use thereof” (SHANGHAI INSTITUTE OF MATERIA MEDICA, CHINESE ACADEMY OF …, priority 2018, dated 2024).

For one series, the system named is RAW 264.7 cells. Briefly: Cytotoxicity on RAW 264.7 cells (CCK-8 method). In kind it is cell-based, mouse. Background: Formazan colour is commonly taken as a measure of viable cells.
A short description of series [1]: Cytotoxicity on RAW 264.7 cells (CCK-8 method). It counts as cell-based, mouse. The settings on record: mouse, RAW 264.7 cells; drug concentration required to cause median cytotoxicity, RAW 264.7.
Protocol: Mouse RAW 264.7 cells were purchased from American Type Culture Collection (Manassas, VA, USA), and cultivated in DMEM culture medium (Hyclone, South Logan, UT, USA) containing 10% fetal bovine serum (Hyclone, South Logan, UT, USA). Cells were collected and counted before use, and inoculated in a 96-well plate (Corning, NY, USA) at 1×10^5/well. […] 20 μl of CCK-8 solution (Dojindo, Kumamoto, Japan) was added at 30 min before the end of the culture. After the cultivation was ended, the absorbance OD value was measured at 450 nm (reference 650 nm) on amicroplate reader (Molecular Devices, Sunnyvale, CA, USA). The toxicity of the compound on RAW 264.7 cells was calculated by dividing the OD value of the test sample by the OD value of the cell control well, which was labeled as the cell survival rate M %.
Series [2] addresses Human PDE4D catalytic domain (Homo sapiens (Human), UniProt Q08499). Description: Scintillation Proximity Assay (SPA), inhibition of PDE4D catalytic domain activity. In kind it is biochemical. The settings on record: read-out: PDE4D enzyme activity inhibition rate %. In general terms: SPA uses beads or plates that emit light when radiolabelled molecules are held near them.
Protocol: The scintillation Proximity Assay (SPA) method was used to determine the inhibitory effect of compounds on the activity of PDE4D catalytic domain. Human PDE4D catalytic domain protein was obtained by expression and purification in E. coli. […] [^3H]-cAMP, scintillation beads (RPNQO150, Perkin Elmer), and 96-well scintillation microplates (Isoplate-96, Perkin Elmer) were purchased from Perkin Elmer Company.
Finally, 10 μl [^3H]-cAMP (0.005 μCi/μl) was added and incubated for 30 min at 30° C. in a water bath. 50 μl SPA beads was added to quench the reaction, shaked appropriately, and stood for 20 minutes. A microplate scintillation counter was used.
The next series concerns TNF-α secretion in PBMC. Description: Inhibition of LPS-stimulated TNF-α secretion in PBMC (ELISA). In kind it is cell-based. The conditions noted are these: Homo sapiens, read-out: Inhibition rate %. Background: In an ELISA, binding on a coated surface is turned into a signal by an enzyme label.
Series [3] has as its system tumor necrosis factor-α secretion in RAW 264.7 cells. Description: Inhibition of LPS-stimulated tumor necrosis factor-α secretion in RAW 264.7 cells (ELISA). It counts as cell-based, mouse. The conditions noted are these: Mus musculus; for inhibition at 0.5 µM / inhibition at 5 µM / inhibition at 50 µM: RAW264.7, 4 h, read-out: Tumor necrosis factor-α inhibition rate/%.
Protocol: After the activation by bacterial lipopolysaccharide (LPS), various inflammatory mediators such as tumor necrosis factor-α will be released; Phosphodiesterase PDE4 is also expressed in macrophages, and the inhibitory activity of the compound on phosphodiesterase PDE4 can be reflected by detecting the secretion of tumor necrosis factor-α.
Under the stimulation of 1 μg/ml LPS (L5886, Sigma, St. Louis, MO, USA), the cells were cultured in a 37° C., 5% CO2 incubator for 4 h. The background control with no stimulant and stimulation control wells were also set, with a total volume of 200 μl. The culture supernatant was collected by centrifugation, and the secretion level of tumor necrosis factor-α in the culture supernatant was detected by enzyme-linked immunosorbent assay. The tumor necrosis factor-α detection kit was purchased from BD Pharmingen (San Diego, CA, USA).

The test system of series [4] is acute inflammation model of mouse back air sac. Briefly: Acute inflammation model of mouse back air sac (carrageenan). The conditions noted are these: oral gavage 5 mg/kg. It counts as in vivo.
Protocol: On the first day of the experiment, mice were subcutaneously injected with 3 ml of air on the back, and subcutaneously injected with 1.5 ml of air on the back on day 3, and subcutaneously injected with 1 ml of 2% carrageenan (Sigma-Aldrich, St. Louis, MO, USA) on the back on day 6 for sensitization. 4 hours after sensitization, secretion in the air sac was lavaged with phosphate buffer solution. The lavage fluid was used for white blood cell count and inflammatory factor detection. […] Tumor necrosis factor-α and interleukin-6 detection kits were purchased from BD Pharmingen (San Diego, CA, USA).

Several values for one entry are separate records, joined by “and”; a condition that tells them apart may be missing. Equal entries are not always repeated. Where two headings read alike, the source gives them in different places.

What is called CC50 is the concentration giving 50% cytotoxicity. A high value points to lower toxicity to the cells. A word on the IC50: it is the concentration that gives 50% inhibition.

Human PDE4D catalytic domain, sequence (Q08499 386-715): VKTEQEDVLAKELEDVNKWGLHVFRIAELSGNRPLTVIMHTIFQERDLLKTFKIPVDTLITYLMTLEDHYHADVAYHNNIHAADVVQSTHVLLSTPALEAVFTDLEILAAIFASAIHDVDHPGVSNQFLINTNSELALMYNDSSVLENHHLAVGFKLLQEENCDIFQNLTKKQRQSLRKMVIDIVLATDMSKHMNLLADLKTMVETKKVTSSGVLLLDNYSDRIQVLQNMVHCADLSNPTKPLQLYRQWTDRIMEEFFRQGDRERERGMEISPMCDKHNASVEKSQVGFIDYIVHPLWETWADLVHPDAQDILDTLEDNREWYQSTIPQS

Take `COc1cc2c(cc1OC)[C@H](CCc1c[nH]c3ccccc13)N(C=O)CC2` [(S)-A1, (S)-1-(2-(1H-indol-3-yl)ethyl)-6,7-dimethoxy-3,4-dihydroisoquinoline-2(1H)-formaldehyde]: the Cell survival rate/% in the series on RAW 264.7 cells (RAW 264.7, 0.5 μM) was 112.3% and 103%; in the series with RAW 264.7 cells (RAW 264.7, 5 μM) it was 126.4% and 100.2%; in the series on RAW 264.7 cells (RAW 264.7, 50 μM) it was 88.8% and 102%. The molecule further displayed a CC50 at 4 h in series [1] above 50 µM.

Turning to `COC(=O)CN1CCc2cc(OC)c(OC)cc2C1CCc1c[nH]c2ccccc12` (stereo not shown) [Compound B5, methyl-2-(1-(2-(1H-indol-3-yl)ethyl)-6,7-dimethoxy-3,4-dihydroisoquinoline-2(1H)-yl) acetate], the inhibition at 1 µM in series [2] turned out to be 39.1%; in the series on TNF-α secretion in PBMC (PBMC), 21.7%. In the series on TNF-α secretion in PBMC (PBMC), the inhibition at 10 µM came out at 55.2%. For the same molecule, the Cell survival rate/% is given as 86% with RAW 264.7 cells (RAW 264.7, 0.5 μM); 88.2% with RAW 264.7 cells (RAW 264.7, 5 μM); 103.8% with RAW 264.7 cells (RAW 264.7, 50 μM). Also, the inhibition at 0.5 µM in series [3] was -2.1%. For the same molecule, the inhibition at 5 µM in series [3] was 20%. Besides, the inhibition at 50 µM in series [3] stood at 47.9%.

Consider `COc1cc2c(cc1OC)C(CCc1c[nH]c3ccccc13)N(C(=O)C1CCOCC1)CC2` (stereo not shown) [Compound B3, (1-(2-(1H-indol-3-yl)ethyl)-6,7-dimethoxy-3,4-dihydroisoquinoline-2(1H)-yl)(tetrahydro-2H-pyran-4-yl)ketone], for which the inhibition at 1 µM was 16.4% in series [2] (Compound concentration: 1 μM) and 33.3% in the series on TNF-α secretion in PBMC (TNF-α secretion in PBMC, 1 μM). Also, the inhibition at 10 µM in the series on TNF-α secretion in PBMC (TNF-α secretion in PBMC, 10 μM) came to 60.2%. Further, the Cell survival rate/% is given as 97.7% in the series on RAW 264.7 cells (RAW 264.7, 0.5 μM); 113.9% with RAW 264.7 cells (RAW 264.7, 5 μM); 79.6% in the series on RAW 264.7 cells (RAW 264.7, 50 μM). In series [3] (RAW 264.7, 0.5 μM), the inhibition at 0.5 µM stood at 4.4%. Moreover, the inhibition at 5 µM in series [3] (RAW 264.7, 5 μM) was found to be 10.8%. In addition, the inhibition at 50 µM in series [3] (RAW 264.7, 50 μM) was 62.5%.

With `COc1cc2c(cc1OC)[C@H](CCc1c[nH]c3ccccc13)N(C(=O)C(F)(F)F)CC2` [(S)-B10, (S)-1-(1-(2-(1H-indol-3-yl)ethyl)-6,7-dimethoxy-3,4-dihydroisoquinoline-2(1H)-yl)-2,2,2-trifluoroethane-1-one], the inhibition at 1 µM in series [2] (Compound concentration: 1 μM) turned out to be 29.5%; with TNF-α secretion in PBMC (TNF-α secretion in PBMC, 1 μM) it was 19.9%. Besides, the inhibition at 10 µM in the series on TNF-α secretion in PBMC (TNF-α secretion in PBMC, 10 μM) came to 59.6%. Moreover, the Cell survival rate/% with RAW 264.7 cells (RAW 264.7, 0.5 μM) is listed as 89.2%; in the series with RAW 264.7 cells (RAW 264.7, 5 μM) it was 84.9%; with RAW 264.7 cells (RAW 264.7, 50 μM), 93.8%. Further, the inhibition at 0.5 µM in series [3] (RAW 264.7, 0.5 μM) was -3%. In addition, the inhibition at 5 µM in series [3] (RAW 264.7, 5 μM) is -27.9%. Besides, the inhibition at 50 µM in series [3] (RAW 264.7, 50 μM) was found to be 33.7%.

For the molecule `COc1cc2c(cc1OC)[C@H](CCc1c[nH]c3cc(C)ccc13)N(C=O)CC2` [(S)-C5, (S)-6,7-dimethoxy-1-(2-(6-methyl-1H-indol-3-yl)ethyl)-3,4-dihydroisoquinoline-2(1H)-formaldehyde], the “secretion level of interleukin-6 in lavage” value in series [4] is recorded as “reduce”. Besides, the “secretion level of tumor necrosis factor-α in lavage” value in series [4] was “reduce”. Further, in series [4] (24 h and 1 h before sensitization), the inflammatory response entry is on record as “significantly reduce”. Also, the Cell survival rate/% with RAW 264.7 cells (RAW 264.7, 0.5 μM) is 98%; in the series on RAW 264.7 cells (RAW 264.7, 5 μM), 109.4%; with RAW 264.7 cells (RAW 264.7, 50 μM), 93.4%.

In series [1], `CCOc1cc([C@@H](CS(C)(=O)=O)N2C(=O)c3cccc(NC(C)=O)c3C2=O)ccc1OC` [Apremilast, reference compound] registered a CC50 at 4 h above 10 µM. The molecule also had a 50% inhibitory concentration (IC50) in series [3] (RAW264.7, RAW 264.7) of 4.2 µM.

With `COc1cc2c(cc1OC1CCCC1)C(CCc1c[nH]c3cc(C)ccc13)N(C=O)CC2` (stereo not shown) [Compound C3, 7-(cyclopentyloxy)-6-methoxy-1-(2-(6-methyl-1H-indol-3-yl)ethyl)-3,4-dihydroisoquinoline-2(1H)-formaldehyde], the inhibition at 1 µM in series [2] (Compound concentration: 1 μM) was 6.4%. Besides, the inhibition at 10 µM in the series on TNF-α secretion in PBMC (TNF-α secretion in PBMC, 10 μM) stood at 36.4%. Also, the Cell survival rate/% in the series on RAW 264.7 cells (RAW 264.7, 0.5 μM) is 115.1%; with RAW 264.7 cells (RAW 264.7, 5 μM), 120.5%; in the series on RAW 264.7 cells (RAW 264.7, 50 μM), 112.6%. The inhibition at 0.5 µM in series [3] (RAW 264.7, 0.5 μM) was -0.9%. In addition, the inhibition at 5 µM in series [3] (RAW 264.7, 5 μM) was 5.9%. For the same molecule, in series [3] (RAW 264.7, 50 μM), the inhibition at 50 µM came out at 59.7%.

With `COc1cc2c(cc1OC)[C@H](CCc1c[nH]c3cc(F)ccc13)N(C=O)CC2` [(S)-C6, (S)-1-(2-(6-fluoro-1H-indol-3-yl)ethyl)-6,7-dimethoxy-3,4-dihydroisoquinoline-2(1H)-formaldehyde], the Cell survival rate/% in the series with RAW 264.7 cells (RAW 264.7, 0.5 μM) turned out to be 108.6%; in the series with RAW 264.7 cells (RAW 264.7, 5 μM), 118.4%; with RAW 264.7 cells (RAW 264.7, 50 μM), 93.7%. For the same molecule, in series [1], the CC50 at 4 h was above 50 µM.

On to `COCCN1CCc2cc(OC)c(OC)cc2C1CCc1c[nH]c2ccccc12` (stereo not shown) [Compound B2, 1-(2-(1H-indol-3-yl)ethyl)-6,7-dimethoxy-2-(2-methoxyethyl)-1,2,3,4-tetrahydroisoquinoline], for which the inhibition at 1 µM in series [2] (Compound concentration: 1 μM) worked out at 19.2%. Further, the inhibition at 10 µM with TNF-α secretion in PBMC (TNF-α secretion in PBMC, 10 μM) stood at 25.7%. The Cell survival rate/% is recorded as 88.3% with RAW 264.7 cells (RAW 264.7, 0.5 μM); 83.5% with RAW 264.7 cells (RAW 264.7, 5 μM); 71.4% with RAW 264.7 cells (RAW 264.7, 50 μM). Moreover, the inhibition at 0.5 µM in series [3] (RAW 264.7, 0.5 μM) is 6.2%. Further, the inhibition at 5 µM in series [3] (RAW 264.7, 5 μM) turned out to be 18.8%. Further, the inhibition at 50 µM in series [3] (RAW 264.7, 50 μM) is 83.9%.

As for `COc1cc2c(cc1OC)C(CCc1c[nH]c3ccccc13)N(C(=O)c1ccncc1)CC2` (stereo not shown) [Compound B1], the inhibition at 1 µM in series [2] (Compound concentration: 1 μM) was 30.7%; in the series on TNF-α secretion in PBMC (TNF-α secretion in PBMC, 1 μM) it was 39.8%. The inhibition at 10 µM with TNF-α secretion in PBMC (TNF-α secretion in PBMC, 10 μM) is 58.5%. The Cell survival rate/% in the series with RAW 264.7 cells (RAW 264.7, 0.5 μM) was found to be 78%; with RAW 264.7 cells (RAW 264.7, 5 μM) it was 74.9%; with RAW 264.7 cells (RAW 264.7, 50 μM) it was 78.8%. Besides, the inhibition at 0.5 µM in series [3] (RAW 264.7, 0.5 μM) was -2.4%. For the same molecule, the inhibition at 5 µM in series [3] (RAW 264.7, 5 μM) was -17.8%. For the same molecule, in series [3] (RAW 264.7, 50 μM), the inhibition at 50 µM stood at 67.9%.

Turning to `COc1cc2c(cc1OC)C(CCc1c[nH]c3ccccc13)N(CC(F)(F)F)CC2` (stereo not shown) [Compound B6, 1-(2-(1H-indol-3-yl)ethyl)-6,7-dimethoxy-2-(2,2,2-trifluoroethyl)-1,2,3,4-tetrahydroisoquinoline], in series [2] (Compound concentration: 1 μM), the inhibition at 1 µM was determined as 19.5%. Also, the inhibition at 10 µM in the series on TNF-α secretion in PBMC (TNF-α secretion in PBMC, 10 μM) was -23.2%. The Cell survival rate/% is 117.3% in the series on RAW 264.7 cells (RAW 264.7, 0.5 μM); 87% in the series with RAW 264.7 cells (RAW 264.7, 5 μM); 95.3% with RAW 264.7 cells (RAW 264.7, 50 μM). Besides, the inhibition at 0.5 µM in series [3] (RAW 264.7, 0.5 μM) came out at 8.2%. In series [3] (RAW 264.7, 5 μM), the inhibition at 5 µM was -7.1%. In addition, in series [3] (RAW 264.7, 50 μM), the inhibition at 50 µM is 67.5%.
